For data set [1] the following is noted: suggested; control of morning sickness during pregnancy; cited from earlier work.
The subject of data set [2] is methyltransferases. To be noted: other methyltransferases; cited from earlier work.
Data set [3] has as its system S-adenosyl-l-methionine-dependent methyltransferases. To be noted: cited from earlier work.
In data set [4] the test system is patients with major depressive episode (DSM-III). In words: open, non-blind study of depression, Hamilton Rating Scale for Depression. The format is in vivo, human. The conditions noted are these: 400 mg twice daily, 14 days. As to the method:
(S,S)-S-adenosyl-l-methionine p-toluene sulfonate 400 mg was administered twice daily in an open, non-blind study of 10 volunteers who gave informed consent. All patients had normal results on pre-study medical examinations, including laboratory examinations. Patients received 400 mg of (S,S)-S-adenosyl-l-methionine p-toluene sulfonate in an enteric-coated tablet form twice daily for 14 days or until remission of depression symptoms. The 10 patients satisfied the DSM-III criteria for a major depressive episode. Patients' symptoms were monitored daily using the Hamilton Rating Scale for Depression. 9 patients completed the study. […] One patient had no change at all.

For data set [5], the system named is nucleolar 2-0-methyltransferase. The conditions noted are these: vs (R,S) diasteriomer; cited from earlier work.
For data set [6], the system named is alcoholic liver cirrhosis. To be noted: oral, vs placebo treated group; cited from earlier work.
In data set [7] the test system is Alzheimer's disease. To be noted: preliminary study; cited from earlier work.
Data set [8] deals with brain oxidative status. To be noted: chronically administered, rats; cited from earlier work.
For data set [9], the system named is liver glutathione. To be noted: oral, patients with and without liver disease; cited from earlier work.
For data set [10], the system named is intrahepatic cholestasis. To be noted: oral, intrahepatic cholestasis patients; cited from earlier work.
The test system of data set [11] is primary fibromyalgia. The conditions noted are these: oral, short-term trial; cited from earlier work.
Data set [12] deals with tumor necrosis factor alpha. To be noted: cited from earlier work.
In data set [13] the test system is human erythrocytes. The conditions noted are these: incubated in vitro with human erythrocytes; cited from earlier work.
The test system of data set [14] is migraines. To be noted: human, in vivo; cited from earlier work.
Data set [15] concerns total parenteral nutrition-induced cholestasis. To be noted: rat; cited from earlier work.
Data set [16] deals with peripheral occlusive arterial disease. The conditions noted are these: patients with peripheral occlusive arterial disease; cited from earlier work.
For data set [17], the system named is muscarinic receptors. The conditions noted are these: rats treated chronically; cited from earlier work.
Data set [18] concerns memory. To be noted: treated vs age matched untreated animals, old and young; cited from earlier work.
For data set [19], the system named is beta-adrenergic. The conditions noted are these: L-form vs D-enantiomer; cited from earlier work.
Setting [20] is: enteric-coated tablet, 9 patients completed.

Regarding `O=C1CCC(N2C(=O)c3ccccc3C2=O)C(=O)N1` (single isomer, unassigned) [D-enantiomer of thalidomide, thalidomide], the “safety and effect of thalidomide enantiomer in pregnancy” value in data set [1] is “safe and effective sedative”.

Take `O=C1CCC(N2C(=O)c3ccccc3C2=O)C(=O)N1` (single isomer, unassigned) [L-enantiomer, thalidomide]: the “safety and effect of thalidomide enantiomer in pregnancy” value in data set [1] was “potent teratogen”.

As to `C[S@@+](CC[C@@H](N)C(=O)O)C[C@H]1O[C@@H](n2cnc3c(N)ncnc32)[C@H](O)[C@@H]1O` [(R,S)-S-adenosyl-l-methionine], the “binding relative to (S,S)-S-adenosyl-l-methionine” value in [2] is listed as “to the same extent”. For the same molecule, the “inhibition of enzyme-catalyzed transmethylation reactions” value in data set [3] is “potent inhibitor”.

Regarding `C[S@@+](CC[C@H](N)C(=O)O)C[C@H]1O[C@@H](n2cnc3c(N)ncnc32)[C@H](O)[C@@H]1O.Cc1ccc(S(=O)(=O)[O-])cc1` [(S,S)-S-adenosyl-l-methionine p-toluene sulfonate], the “side effects (reported, laboratory or physical examination)” value in data set [4] is on record as “No side effects were noted or reported”. Besides, in [4] (setting [20]), the “patients who completed the trial and improved (Hamilton Rating Scale for Depression)” value is given as “Eight of the nine”; the “patients with no change” value is given as “One”.

For `C[S@@+](CC[C@H](N)C(=O)O)C[C@H]1O[C@@H](n2cnc3c(N)ncnc32)[C@H](O)[C@@H]1O` [(S,S)-S-adenosyl-l-methionine], the “tightness of enzyme binding relative to (R,S)-S-adenosyl-l-methionine” value in data set [5] is on record as 10 fold.

On to `C[S+](CC[C@H](N)C(=O)[O-])C[C@H]1O[C@@H](n2cnc3c(N)ncnc32)[C@H](O)[C@@H]1O` (stereo partly drawn) [S-adenosyl-l-methionine], for which, in data set [6], the “overall mortality and/or progression to liver transplant” value is reported as 12%. Further, the “cognitive effect in patients with Alzheimer's disease” value in data set [7] is “cognitive improvement”. The “oxidative status in the brain” value in data set [8] is reported as “enhancing anti-oxidative defenses”. In addition, the liver glutathione levels entry in [9] was “increases in liver glutathione levels”. Further, the “pruritus and biochemical markers of cholestasis” value in data set [10] is given as “improvements in both the pruritus as well as the biochemical markers of cholestasis”. In addition, the “improvement in primary fibromyalgia” value in data set [11] is on record as “significant improvement”. Besides, in data set [12], the “amount of tumor necrosis factor alpha secreted by cells” value is on record as “decrease the amount” and the “damage caused by tumor necrosis factor alpha” value is “attenuates the damage”. Besides, the “ATP within the erythrocyte” value in [13] is listed as “increases ATP within the cell”. The benefit in migraines entry in data set [14] is reported as “found to be of benefit”. In addition, the “cholestasis resulting from total parenteral nutrition” value in data set [15] is given as “able to prevent cholestasis”. Besides, in data set [16], the blood viscosity entry is listed as “reduce blood viscosity”. In addition, the “number of muscarinic receptors in the brain” value in data set [17] is on record as “increase the number of muscarinic receptors”. Further, the “performance in eight arm radical maze test versus untreated animals” value in data set [18] is on record as “out-perform”.

With `CC(C)NCC(O)COc1cccc2ccccc12` (centres unmarked) [propranolol], the “potency relative to the D-enantiomer” value in data set [19] is 100 times.

Source of the values: patent US20040063660A1, “Diasteriomers of S-adenosyl-l-methionine and uses thereof” (priority 2000, published 2004).
